# Laboratory results reported in patent US10767187B2 (The State of Israel, Ministry of Agriculture & Rural …, priority 2016, dated 2020).
# What was measured:
# MdPh-4′-OGT [1] = target: T1, MdPh-4′-OGT (Malus domestica, UniProt A7MAS5); experiment: Substrate specificity, sugar donor and cation dependence of purified recombinant MdPh-4′-OGT; type: biochemical, Malus x domestica; details: 50 μM substrate, 2 mM UDP-glucose, 500 ng enzyme, 1 hour, pH 7.5; LC-MS
# T1 construct: made in house; host or cells: E. coli BL21 (DE3)
# T1 sequence (A7MAS5 1-481): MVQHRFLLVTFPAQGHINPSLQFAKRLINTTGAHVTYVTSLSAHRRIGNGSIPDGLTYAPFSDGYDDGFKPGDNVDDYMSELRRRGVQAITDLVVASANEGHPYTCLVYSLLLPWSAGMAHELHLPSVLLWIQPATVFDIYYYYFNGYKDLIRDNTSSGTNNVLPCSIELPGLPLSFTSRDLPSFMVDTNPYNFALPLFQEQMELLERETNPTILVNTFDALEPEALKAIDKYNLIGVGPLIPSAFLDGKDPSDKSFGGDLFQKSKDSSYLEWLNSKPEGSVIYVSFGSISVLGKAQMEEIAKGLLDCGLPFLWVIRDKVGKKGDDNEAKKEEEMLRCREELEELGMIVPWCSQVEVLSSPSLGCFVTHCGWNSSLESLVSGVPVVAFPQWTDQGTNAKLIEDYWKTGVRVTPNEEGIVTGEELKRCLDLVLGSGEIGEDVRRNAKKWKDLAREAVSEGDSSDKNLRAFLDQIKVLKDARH
# Experimental: Substrates analyzed are indicated.
# (§1) Reactions were performed at 30° C. for 60 minutes and terminated by addition of 10 μL of 10% TCA (v/v). Two microliters of the reaction products were used for analysis and identification by LC-UV-MS. All assay series were carried out at least in triplicate.
# The analytical column was a Zorbax Extend-C18 Rapid Resolution HT column (2.1×50.0 mm, 1.8 μm, Agilent Technologies, Waldbronn, Germany). The gradient elution mobile phase consisted of H2O with 0.1% (v/v) formic acid (eluent A) and acetonitrile containing 0.1% (v/v) formic acid (eluent B). The column was equilibrated with 10% B for 1.5 minutes. […] The flow rate of the mobile phase was 0.3 ml/min and the column oven temperature was 40° C. Eluting compounds were subjected to a dual-sprayer orthogonal ESI source, with one sprayer for analytical flow and one for the reference compound (Agilent Technologies, Santa Clara, USA). The ESI source was operated in negative mode with the following settings: gas temp of 300° C. with a flow of 8 L/min and nebulizer set to 35 psig. VCap set to 3000 V, the fragmentor to −140 V and the skimmer to 65 V. Scan mode of the mass detector was applied (100-1700 m/z) with a rate of 1 spectra/sec. The [M-H] ions of target compounds were detected using the ‘find compound by formula’ function and analyzed by Masshunter qualitative and quantitative analysis software version B.07.00 (Agilent technologies). Compounds were identified by comparison of exact mass and retention time to purchased standards.
# MdPGT1 = MdPGT1 (Malus domestica, UniProt B3TKC8); details: Jugde et al. (2008)
# Malus Ph-2′-OGT = experiment: Km for phloretin of Malus Ph-2′-OGT (literature) compared with MdPh-4′-OGT; type: biochemical; details: Gosch C. et al. (2010)
# MdPh-4′-OGT [2] = target: T1, MdPh-4′-OGT; experiment: Kinetic parameters of His-tag purified recombinant MdPh-4′-OGT (standard glucosyltransferase enzyme assay, LC-MS); type: biochemical, Malus x domestica
# Experimental: as §1
# The UPLC-MS analysis was carried out on an Agilent 1290 Infinity series liquid chromatograph coupled with an Agilent 1290 Infinity DAD and Agilent 6224 Accurate Mass Time of Flight mass spectrometer (MS) (Agilent Technologies, Santa Clara, USA). The analytical column was a Zorbax Extend-C18 Rapid Resolution HT column (2.1×50.0 mm, 1.8 μm, Agilent Technologies, Waldbronn, Germany). The gradient elution mobile phase consisted of H2O with 0.1% (v/v) formic acid (eluent A) and acetonitrile containing 0.1% (v/v) formic acid (eluent B). The column was equilibrated with 10% B for 1.5 minutes. Eluent B was then increased to 95% till 12 minutes, and restored to 10% by 15 minutes. The flow rate of the mobile phase was 0.3 ml/min and the column oven temperature was 40° C. Eluting compounds were subjected to a dual-sprayer orthogonal ESI source, with one sprayer for analytical flow and one for the reference compound (Agilent Technologies, Santa Clara, USA). The ESI source was operated in negative mode with the following settings: gas temp of 300° C. with a flow of 8 L/min and nebulizer set to 35 psig. VCap set to 3000 V, the fragmentor to −140 V and the skimmer to 65 V. Scan mode of the mass detector was applied (100-1700 m/z) with a rate of 1 spectra/sec. The [M-H] ions of target compounds were detected using the ‘find compound by formula’ function and analyzed by Masshunter qualitative and quantitative analysis software version B.07.00 (Agilent technologies). Compounds were identified by comparison of exact mass and retention time to purchased standards.
# MdPh-4′-OGT [3] = target: T1, MdPh-4′-OGT; experiment: pH and temperature optima of MdPh-4′-OGT activity with phloretin and UDP-glucose; type: biochemical, Malus x domestica
# Experimental: as §1
# All data included represent an average of at least three independent experiments. Determination of the pH optima within the range of 4.0-10.0 by mixing the stock buffer of 0.5 M citric acid and 1 M dibasic sodium phosphate solutions (for pH 4.0-7.0) and Tris-HCl (for pH 8.0-10.0), and the temperature optima within the range of 20° C.-45° C.
molecule,measurement,setting,value
O=C(O)/C=C/c1ccc(O)cc1 [4-coumaric acid],Activity / product formation with the compound as acceptor substrate,MdPh-4′-OGT [1],no products were detected
"O=C(CCc1ccc(O)cc1)c1c(O)cc(O)cc1O [Phloretin, 3-(4-hydroxyphenyl)-1-(2,4,6-trihydroxyphenyl)-1-propanone]","Km for phloretin, times lower than with MdPh-4′-OGT",MdPGT1,41 times
same,"Km for phloretin, times higher than with MdPh-4′-OGT",Malus Ph-2′-OGT,3 times
same,kcat,"MdPh-4′-OGT [2]; named substrate varied, co-substrate fixed",9.94 ± 1.23 s^−1 (×10^−2)
same,Vmax,"MdPh-4′-OGT [2]; named substrate varied, co-substrate fixed, 500 ng enzyme",1.86 ± 0.30 pkat μg^−1 protein
same,Vmax,"MdPh-4′-OGT [2]; named substrate varied, co-substrate fixed, 500 ng enzyme, listed as phloretin",1.86±0.30 pkat μg^−1 protein
same,Km,"MdPh-4′-OGT [2]; named substrate varied: phloretin 0.5-500 μM at 2 mM UDP-glucose, UDP-glucose 0.01-50 mM at 30 μM phloretin, 500 ng enzyme",26.1 ± 6.97 µM
same,Activity / product formation with the compound as acceptor substrate,MdPh-4′-OGT [1],highest activity
O=C(/C=C/c1ccc(O)c(O)c1)c1ccc(O)cc1O [butein],Activity / product formation with the compound as acceptor substrate,MdPh-4′-OGT [1],production of the corresponding O-glucoside
O=C(O)/C=C/c1ccc(O)c(O)c1 [caffeic acid],Activity / product formation with the compound as acceptor substrate,MdPh-4′-OGT [1],no products were detected
O=C1C[C@@H](c2ccc(O)cc2)Oc2cc(O)cc(O)c21 [naringenin],Activity / product formation with the compound as acceptor substrate,MdPh-4′-OGT [1],formation of the corresponding naringenin-7-O-glucoside
O=c1c(O)c(-c2ccc(O)c(O)c2)oc2cc(O)cc(O)c12 [quercetin],Activity / product formation with the compound as acceptor substrate,MdPh-4′-OGT [1],production of three different products
"O=C(CCc1ccc(O)cc1)c1c(O)cc(O[C@@H]2O[C@H](CO)[C@@H](O)[C@H](O)[C@H]2O)cc1O [trilobatin, 1-Propanone, 1-(4-(beta-D-glucopyranosyloxy)-2,6-dihydroxyphenyl)-3-(4-hydroxyphenyl)]",Activity / product formation with the compound as acceptor substrate,MdPh-4′-OGT [1],production of the corresponding di-O-glucosides
"MdPh-4′-OGT: His-tagged recombinant apple glycosyltransferase that glycosylates phloretin with UDP-glucose to form trilobatin (protein, listed as Malus domestica, His tag, His-tagged recombinant apple glycosyltransferase that glycosylates phloretin with UDP-glucose to form trilobatin) MVQHRFLLVTFPAQGHINPSLQFAKRLINTTGAHVTYVTSLSAHRRIGNGSIPDGLTYAPFSDGYDDGFKPGDNVDDYMSELRRRGVQAITDLVVASANEGHPYTCLVYSLLLPWSAGMAHELHLPSVLLWIQPATVFDIYYYYFNGYKDLIRDNTSSGTNNVLPCSIELPGLPLSFTSRDLPSFMVDTNPYNFALPLFQEQMELLERETNPTILVNTFDALEPEALKAIDKYNLIGVGPLIPSAFLDGKDPSDKSFGGDLFQKSKDSSYLEWLNSKPEGSVIYVSFGSISVLGKAQMEEIAKGLLDCGLPFLWVIRDKVGKKGDDNEAKKEEEMLRCREELEELGMIVPWCSQVEVLSSPSLGCFVTHCGWNSSLESLVSGVPVVAFPQWTDQGTNAKLIEDYWKTGVRVTPNEEGIVTGEELKRCLDLVLGSGEIGEDVRRNAKKWKDLAREAVSEGDSSDKNLRAFLDQIKVLKDARH",Activation energy,MdPh-4′-OGT [3]; calculated from temperature dependence,4.369 kcal/mol
same,Activity remaining at pH 6.0,MdPh-4′-OGT [3]; pH 6.0,17%
same,Activity remaining at pH 10.0,MdPh-4′-OGT [3]; pH 10.0,less than 5%
same,pH of maximum activity,MdPh-4′-OGT [3]; pH range 4.0-10.0 tested,9.0 pH
same,pH range of significant activity,MdPh-4′-OGT [3]; pH range 4.0-10.0 tested,7.0-9.0 pH
